Laboratory results reported in article PMC5859971 (Genes & Development, 2018).
Where “and” joins values, the source holds several entries; their conditions need not be identical. Equal entries are not always repeated. Where two headings read alike, the source gives them in different places.

Legend:
[1] = target: T1, wild-type mini-SF3b complex (4-protein SF3b complex) (Homo sapiens, UniProt O75533+Q7RTV0); experiment: Scintillation proximity assay (SPA) competition with 3H-labeled pladienolide probe; format: binding; settings: for activity after truncating the diene tail: assays of Table 1
T1 construct: SF3B1 was limited to the HEAT repeat domain from residues 454–1304 and cloned in-frame with an N-terminal Flag tag; Truncated SF3B1 and full-length SF3B3, PHF5A, and SF3B5 were synthesized; made in house; host or cells: SF21 insect cells (baculovirus, pFastBac1)
Experimental: (§1) To further validate the pose of the compound, we analyzed the activity of several related chemical probes using the SPA with the purified protein complex ([Teng et al. 2017]). The SPA is formatted as a competition assay in which the purified protein complex is captured on a bead containing scintillant, incubated with test compounds over a dose response, and then competed off with a fixed concentration of ^3H-Plad compound. IC50 curves are then measured from the resulting light emitted from the bead (Table 1; Supplemental Fig. S4). In addition, we tested the probes in viability assays in two engineered cell lines: HCT116-PHF5A^WT and the sensitization line HCT116-PHF5A^R38C (Table 1; Supplemental Fig. S5). This facilitates profiling of chemical probe activity in the PHF5A background (wild type and mutant). The relative expression levels were further confirmed by Western blot analysis (Supplemental Fig. S5).
Batch immobilization of the anti-Flag antibody (Sigma) to the anti-mouse PVT SPA scintillation beads (PerkinElmer) was prepared as follows. For every 1.5 mg of beads, 10 µg of antibody was prepared in 150 µL of PBS. The antibody–bead mixture was incubated for 30 min at room temperature and centrifuged at 18,000g for 5 min. One-hundred-fifty microliters of PBS was used to resuspend every 1.5 mg of antibody–bead mixture. The aforementioned mini-SF3b complex was tested for ^3H-labeled pladienolide probe binding ([Kotake et al. 2007]). One-hundred microliters of binding reactions was prepared with […] of bead slurry and 0 or 50 nM protein in buffer (20 mM HEPES at pH 8, 200 mM KCl, 5% glycerol). The mixture was incubated for 30 min, and varying concentrations of ^3H-labeled pladienolide probe were added. The mixture was incubated for 30 min, and luminescence signals were read using a MicroBeta2 plate counter (PerkinElmer). Compound competition studies were performed with the wild-type mini-SF3b complex. One-hundred microliters of binding reactions was prepared with 50 µL of bead slurry, 25 nM protein in buffer, and compounds at varying concentrations. After 30 min of preincubation, 10 nM ^3H-labeled pladienolide probe was added. The reactions were incubated for 30 min, and luminescence signals were read.
The Scintillation proximity assay (SPA) competition assay with 10 nM 3H tracer for different Pladienolide analogs binding to the 4-protein SF3b complex. Error bars represent STD for 2 or more measurements. Red = E7107, Orange = PladD, Purple = PladF, Green = compound 2, red = compound 3, gray = compound 4, black = compound 5, blue = compound 6. […]

HCT116-PHF5A^WT = experiment: CellTiter-Glo viability assay, HCT116-PHF5A^WT; format: cell-based, human; settings: for GI50: Homo sapiens, 72 h, read-out: HCT116-PHF5A^WT GI50
Experimental: as §1
(§2) Parental HCT116 cells were obtained from American Type Culture Collection and cultured in RPMI 1640 medium supplemented with 10% fetal bovine serum. PHF5A R38C was generated using the Agilent QuikChange II kit and was cloned into pLenti6.3/V5 as described ([Teng et al. 2017]). The verified clone was used for lentivirus production using X293T cells. Parental HCT116 cells were infected with virus and selected with blasticidin S at 10 µg mL^−1 for 1 wk. Engineered cell lines were subsequently maintained in the absence of antibiotic. Transgene expression was confirmed by Western blot analysis (Supplemental Fig. S4). For Western blot analysis, α-PHF5A rabbit polyclonal antibody (Protein Tech, 15554-1-AP) was used at 1:1000 dilution in LI-COR buffer, and anti-rabbit secondary antibody (LI-COR) was used at 1:5000 dilution. The Western blot was imaged using an Odyssey V3.0 imager (LI-COR). For CellTiter-Glo analysis of the wild-type and PHF5A^R38C cell lines, 500 cells were seeded in each well of a 384-well plate 1 d before compound addition. Dose response was measured in 11-point serial dilutions with a top dose of 10 µM. The percentage of DMSO was controlled throughout, and a DMSO-only control was included. Seventy-two hours after dosing, CellTiter-Glo reagent was added, incubated, and assayed on an EnVision multilabel reader (PerkinElmer). Luminescence values from each treatment were normalized to the average value of the respective DMSO control. The dose response curve plots were generated in GraphPad Prism, and GI50 values were calculated from nonlinear regression analysis. GI50 values for the wild-type and R38C mutant cell lines were plotted in Spotfire.

HCT116-PHF5A^R38C = experiment: CellTiter-Glo viability assay, HCT116-PHF5A^R38C; format: cell-based, human; settings: for GI50: Homo sapiens, 72 h, read-out: HCT116-PHF5A^R38C GI50
Experimental: as §1, §2

[2] = test system: splicing of Ad2.2 pre-mRNA substrate; experiment: In vitro splicing (IVS) assay, Ad2.2 substrate, HeLa S3 nuclear extracts, RT-qPCR; format: biochemical, human; settings: for IC50: Ad2.2 (weak) substrate; for inhibition of strong and weak IVS substrates: Ad2.1 and Ad2.2 substrates compared
Text: (§3) A substrate competitive mechanism of action (MOA) would predict that weaker pre-mRNA substrates would be easier to inhibit than stronger substrates. To date, it has not been possible to evaluate substrate competition using traditional steady-state conditions because splicing reactions are thought to be single-turnover events in vitro, and therefore it is not possible to measure a KM for the pre-mRNA. […] Specifically, we engineered the strong in vitro splicing substrate Ad2.1 by enhancing the U2 snRNP base-pairing around the BPA found in the Ad2 substrate. We then engineered a weaker substrate, Ad2.2, by adding a decoy BPS lacking an extrahelical adenosine (Ad2.2) (Fig. 5A; Supplemental Vector NTI files; [Corrionero et al. 2011]). […] We then evaluated E7107 and several chemical probes to better understand their mechanism.
(§4) Figure 5. […] (A) Base-pairing logic for IVS substrates. (BPRS) Branch point recognition sequence in U2 snRNA; (BPS) the BPS in the pre-mRNA. The Ad2 gene BPS sequence (UACUUAU) was modified (UACUAAU) to strengthen the U2 base-pairing interactions flanking the BPA, leading to the Ad2.1 substrate (BPA in red). The Ad2.2 sequence has the same BPS as Ad2 but also contains a 5′ decoy BPS sequence (lacking an extrahelical adenine) that can base-pair with the BPRS. The decoy BPS and suboptimal BPS overlap, which gives U2 at least two possibilities for possible base pairing, as indicated. […] (B) RT-qPCR time-course data showing product formation over time. […] (C) Representative IC50 curves for compound 6 using the two different substrates (Ad2.1 and Ad2.2).
(§5) The Ad2-derived ([Pellizzoni et al. 1998]) sequence was cloned into the pGEM-3Z vector (Promega) using 5′ EcoRI and 3′ XbaI restriction sites. The Ad2 variant (Ad2.2) ([Seiler et al. 2018]) was cloned into pcDNA3.1(+) vector (Promega) using the same restriction sites. The plasmids were linearized using XbaI and used as DNA templates in the in vitro transcription reactions. The FtzΔi intron-less plasmid ([Luo and Reed 1999]) was linearized using EcoRI. All RNAs were in vitro transcribed and then purified using MegaScript T7 and MegaClear kits, respectively (Invitrogen). For splicing reactions used with the Ad2.2 substrate, […] reactions were prepared using 8 µg of nuclear extracts prepared from HeLa S3, a saturating excess of 2 ng of pre-mRNA substrate, 0.2 ng of FTZΔi, and varying concentrations of compounds or DMSO.

[3] = test system: splicing of Ad2.1 pre-mRNA substrate; experiment: In vitro splicing (IVS) assay, Ad2.1 substrate, HeLa S3 nuclear extracts, RT-qPCR; format: biochemical, human; settings: Ad2.1 (strong) substrate
Text: as §3, §4, §5

[4] = test system: HCT116 cell lines overexpressing PHF5A WT and mutants; experiment: Viability curves in HCT116 cell lines overexpressing PHF5A WT and mutants; format: cell-based, human
Experimental: Parental HCT116 cells were obtained from American Type Culture Collection and cultured in RPMI 1640 medium supplemented with 10% fetal bovine serum. […] Parental HCT116 cells were infected with virus and selected with blasticidin S at 10 µg mL^−1 for 1 wk. Engineered cell lines were subsequently maintained in the absence of antibiotic. Transgene expression was confirmed by Western blot analysis (Supplemental Fig. S4). For Western blot analysis, α-PHF5A rabbit polyclonal antibody (Protein Tech, 15554-1-AP) was used at 1:1000 dilution in LI-COR buffer, and anti-rabbit secondary antibody (LI-COR) was used at 1:5000 dilution. The Western blot was imaged using an Odyssey V3.0 imager (LI-COR). For CellTiter-Glo analysis of the wild-type and PHF5A^R38C cell lines, 500 cells were seeded in each well of a 384-well plate 1 d before compound addition. Dose response was measured in 11-point serial dilutions with a top dose of 10 µM. The percentage of DMSO was controlled throughout, and a DMSO-only control was included. Seventy-two hours after dosing, CellTiter-Glo reagent was added, incubated, and assayed on an EnVision multilabel reader (PerkinElmer). Luminescence values from each treatment were normalized to the average value of the respective DMSO control. The dose response curve plots were generated in GraphPad Prism, and GI50 values were calculated from nonlinear regression analysis. […]

[5] = competition with 10 nM 3H-labeled pladienolide probe, 25 nM protein, read-out: SPA IC50

T1 sequence (Q7RTV0 whole entry, the tested form may be a part): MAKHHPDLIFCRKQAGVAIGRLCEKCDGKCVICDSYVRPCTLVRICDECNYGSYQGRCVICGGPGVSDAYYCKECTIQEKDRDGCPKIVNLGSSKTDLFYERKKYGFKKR
T1 sequence (Q15393 whole entry, further chain, the tested form may be a part): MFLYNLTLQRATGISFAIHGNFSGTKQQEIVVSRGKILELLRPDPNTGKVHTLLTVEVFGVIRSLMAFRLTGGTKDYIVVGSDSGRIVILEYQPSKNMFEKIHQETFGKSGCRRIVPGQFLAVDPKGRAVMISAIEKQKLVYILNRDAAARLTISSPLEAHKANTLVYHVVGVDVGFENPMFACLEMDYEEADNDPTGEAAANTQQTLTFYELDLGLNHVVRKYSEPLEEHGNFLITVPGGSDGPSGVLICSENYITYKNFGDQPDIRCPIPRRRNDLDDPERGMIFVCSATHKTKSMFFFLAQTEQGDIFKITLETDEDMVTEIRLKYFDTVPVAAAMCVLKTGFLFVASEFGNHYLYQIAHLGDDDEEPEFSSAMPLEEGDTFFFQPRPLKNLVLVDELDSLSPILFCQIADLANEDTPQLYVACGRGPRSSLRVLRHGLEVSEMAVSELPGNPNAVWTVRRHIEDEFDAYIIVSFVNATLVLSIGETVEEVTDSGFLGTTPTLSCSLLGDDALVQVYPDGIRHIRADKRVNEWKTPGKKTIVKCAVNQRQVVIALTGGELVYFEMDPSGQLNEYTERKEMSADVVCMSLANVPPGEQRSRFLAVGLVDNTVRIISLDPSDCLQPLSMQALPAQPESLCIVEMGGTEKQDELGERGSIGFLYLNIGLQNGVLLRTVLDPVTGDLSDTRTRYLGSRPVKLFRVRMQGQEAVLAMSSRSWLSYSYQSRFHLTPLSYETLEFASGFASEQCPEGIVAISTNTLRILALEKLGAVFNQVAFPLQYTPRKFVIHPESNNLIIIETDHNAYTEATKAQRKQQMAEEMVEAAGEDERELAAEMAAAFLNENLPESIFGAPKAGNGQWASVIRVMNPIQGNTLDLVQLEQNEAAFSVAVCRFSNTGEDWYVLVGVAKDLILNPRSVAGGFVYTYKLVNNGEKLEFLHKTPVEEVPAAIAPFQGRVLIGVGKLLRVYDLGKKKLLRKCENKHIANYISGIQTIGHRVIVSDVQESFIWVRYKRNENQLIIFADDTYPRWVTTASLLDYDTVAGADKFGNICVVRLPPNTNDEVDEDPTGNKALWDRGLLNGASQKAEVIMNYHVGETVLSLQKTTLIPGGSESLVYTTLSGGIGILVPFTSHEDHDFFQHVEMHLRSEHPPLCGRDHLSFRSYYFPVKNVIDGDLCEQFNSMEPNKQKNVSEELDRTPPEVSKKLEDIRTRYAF
T1 sequence (O75533 454-1304): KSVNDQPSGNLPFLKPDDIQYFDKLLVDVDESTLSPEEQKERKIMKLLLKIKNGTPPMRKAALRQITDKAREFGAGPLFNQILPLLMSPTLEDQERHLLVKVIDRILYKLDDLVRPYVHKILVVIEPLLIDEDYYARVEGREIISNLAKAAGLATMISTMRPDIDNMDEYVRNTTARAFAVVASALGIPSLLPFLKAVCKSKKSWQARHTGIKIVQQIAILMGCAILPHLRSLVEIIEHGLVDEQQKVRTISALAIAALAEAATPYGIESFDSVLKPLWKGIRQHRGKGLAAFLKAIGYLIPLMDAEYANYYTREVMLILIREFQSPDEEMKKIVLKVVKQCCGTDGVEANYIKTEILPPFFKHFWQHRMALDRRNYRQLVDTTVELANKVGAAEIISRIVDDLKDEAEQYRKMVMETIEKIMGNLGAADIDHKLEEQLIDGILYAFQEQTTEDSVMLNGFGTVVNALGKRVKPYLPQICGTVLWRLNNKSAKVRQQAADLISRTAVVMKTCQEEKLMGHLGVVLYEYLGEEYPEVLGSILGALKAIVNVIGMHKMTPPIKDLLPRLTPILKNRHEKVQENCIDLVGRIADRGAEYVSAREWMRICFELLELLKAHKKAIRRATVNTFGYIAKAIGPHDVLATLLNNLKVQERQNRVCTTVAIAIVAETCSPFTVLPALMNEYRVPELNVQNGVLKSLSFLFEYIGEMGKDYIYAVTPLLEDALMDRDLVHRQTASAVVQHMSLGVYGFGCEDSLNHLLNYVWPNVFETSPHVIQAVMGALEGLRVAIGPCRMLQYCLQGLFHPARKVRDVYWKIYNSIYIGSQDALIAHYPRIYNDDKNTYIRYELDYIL
T1 sequence (Q9BWJ5 whole entry, further chain, the tested form may be a part): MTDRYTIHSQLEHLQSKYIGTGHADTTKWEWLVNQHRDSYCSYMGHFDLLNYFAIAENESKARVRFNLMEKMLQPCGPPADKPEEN

| Compound | IC50 [1, 5] [nM] | GI50 (HCT116-PHF5A^WT; CellTiter-Glo) [nM] | GI50 (HCT116-PHF5A^R38C; CellTiter-Glo) [nM] | IC50 [2] | IC50 [3] | PHF5A^R38C sensitization phenotype (words) (HCT116-PHF5A^R38C; R38C vs wild type) | further results |
| --- | --- | --- | --- | --- | --- | --- | --- |
| C/C(=C\CO)[C@H]1OC(=O)C[C@H](O)CC[C@@](C)(O)[C@@H](OC(=O)N2CCN(C3CCCCCC3)CC2)/C=C/[C@@H]1C [Compound 5] | > 4000 | > 400 | > 400 | 16000 nM | > 25000 nM |  | activity after truncating the diene tail [1]: completely eliminates activity |
| CCC(O)C(C)C1OC1CC(C)(O)C=CC=C(C)C1OC(=O)CC(O)CCC(C)(O)C(O)C=CC1C (centres unmarked) [Plad F] | 1500 | > 400 | > 400 | 171 nM | > 25000 nM |  | loss of potency relative to E7107 in the SPA ([1]; relative to E7107): 20 fold; loss of potency relative to E7107 in viability assays (HCT116-PHF5A^WT): > 200 fold; inhibition of strong and weak IVS substrates [2]: inhibit only the weak substrate |
| C/C(=C\C=C\[C@@H](C)c1ccccn1)[C@H]1OC(=O)C[C@H](O)CC[C@@](C)(O)[C@@H](OC(=O)N2CCN(C3CCCCCC3)CC2)/C=C/[C@@H]1C [Compound 6] | 376 | 34 | 11 | 23 nM | > 25000 nM |  | loss of potency relative to E7107 in the SPA ([1]; relative to E7107): sixfold; loss of potency relative to E7107 in viability assays (HCT116-PHF5A^WT): ~10 fold; inhibition of strong and weak IVS substrates [2]: inhibit only the weak substrate |
| CCC(O)C(C)C1OC1CC(C)(O)C=CC=C(C)C1OC(=O)CC(OC(=O)C2CC2)CCC(C)(O)C(OC(=O)N2CCN(C3CCCCCC3)CC2)C=CC1C (centres unmarked) [Compound 3] | > 4000 | > 400 | 243 | 966 nM | > 25000 nM |  | activity in the SPA binding assay ([1]; relative to E7107): total loss of activity |
| CCC(O)C(C)C1OC1CC(C)(O)C=CC=C(C)C1OC(=O)CC(O)CCC(C)(O)C(OC(C)=O)C=CC1C (centres unmarked) [Plad D] |  |  |  |  |  |  | IC50 [1]: 97 nM; activity in the SPA binding assay [1]: nearly equipotent to E7107; GI50 (HCT116-PHF5A^WT): 26 nM; PHF5A^R38C sensitization phenotype (words) (HCT116-PHF5A^R38C): did not observe this trend; GI50 (HCT116-PHF5A^R38C): 18 nM |
| CC(C)C[C@H](NC(=O)[C@H](Cc1ccccc1)NC(=O)c1cnccn1)B(O)O [bortezomib] |  |  |  |  |  | lie near the line of unity | killing of cell lines irrespective of PHF5A mutation status [4]: kills all of the cell lines at the same concentration |
| CCC(O)C(C)C1OC1CC(C)(O)C=CC=C(C)C1OC(=O)CC(O)CCC(C)(O)C(OC(=O)N2CC[N+](C)(C3CCCCCC3)CC2)C=CC1C (centres unmarked) [Compound 1] |  | > 400 | > 400 | 184 nM and 177 nM | 177 nM and 184 nM |  | inhibition of strong and weak IVS substrates [2]: inhibit both the strong and weak substrates equally well |
| pladienolide B [PladB] |  |  |  |  |  | did not observe this trend |  |
| CCC(O)C(C)C1OC1CC(C)(O)C=CC=C(C)C1OC(=O)CC(O)CCC(C)(O)C(OC(=O)N2CC[N+](Cc3ccccc3)(C3CCCCCC3)CC2)C=CC1C (centres unmarked) [Compound 2] | 236 |  |  |  |  |  | GI50 (HCT116-PHF5A^WT): > 400 nM; GI50 (HCT116-PHF5A^R38C): 259 nM |
| C/C(=C\C(=O)O)[C@H]1OC(=O)C[C@H](O)CC[C@@](C)(O)[C@@H](OC(=O)N2CCN(C3CCCCCC3)CC2)/C=C/[C@@H]1C [Compound 4] | > 4000 | > 400 | > 400 | > 25000 nM | > 25000 nM |  | activity after truncating the diene tail [1]: completely eliminates activity |
| CO[C@H]([C@@H](C)[C@H]1O[C@]1(C)C[C@H](C)/C=C/C=C(\C)[C@H]1O[C@@H](CC(=O)O)CC[C@@H]1C)[C@@H](C)O [herboxidiene] |  |  |  |  |  | not and did not exhibit this sensitization phenotype and lie near the line of unity |  |
| CO[C@]1(C)C[C@@]2(CO2)[C@H](O)[C@@H](/C=C/C(C)=C/C[C@@H]2O[C@H](C)[C@H](NC(=O)/C=C\[C@H](C)OC(C)=O)C[C@@H]2C)O1 [spliceostatin] |  |  |  |  |  | did not exhibit this sensitization phenotype | PHF5A^R38C sensitization phenotype (words) (HCT116-PHF5A^R38C; R38C vs wild type, listed as Spliceostatin): lie near the line of unity |
